Drawing on ChEMBL document CHEMBL5543065, “ATP ion channel P2X7 receptor as a regulatory molecule in the progression of colorectal cancer” (Eur J Med Chem, 2023), this text covers IC50 for two compounds.

Structures are written as SMILES.

The subject of experiment [1] is HCT-116. Put plainly: Antiproliferative activity against human HCT-116 cells assessed as reduction in cell viability incubated for 24 hrs by CCK-8 assay. In kind it is functional, cell-based. The note with it: HCT-116, 24 h. Background: Formazan colour is commonly taken as a measure of viable cells.
Experiment [2] deals with HCT-116. Nature of the experiment: Antiproliferative activity against human HCT-116 cells assessed as reduction in cell growth incubated for 72 hrs by MTT assay. It counts as functional, cell-based. The note with it: HCT-116, 72 h.

In the case of `O=C1c2ccccc2C(=O)c2c(-c3ccccc3F)noc21`, the IC50 in the experiment on HCT-116 [1] came to 0.35 µM.

`O=C(Nc1ccc(C(F)(F)F)cc1)Nc1nnc(Sc2cc(NCCCN3CCOCC3)ncn2)s1`: in the experiment on HCT-116 [2], the concentration for half-maximal inhibition (IC50) amounted to 5.52 µM.

Broadly, the IC50 is the concentration that inhibits the measured activity by half.
